Data on one compound can be found in paper PMC7470033, “In vitro inhibitory effect of lysionotin on the activity of cytochrome P450 enzymes” (Pharmaceutical Biology, 2020).

For data set [1], the target named is T1, CYP2C8 (Homo sapiens, UniProt P10632).
T1 construct: Pooled HLMs were purchased from BD Biosciences Discovery Labware; tissue BD Biosciences Discovery Labware; host or cells: pooled human liver microsomes
T1 sequence (P10632 1-490): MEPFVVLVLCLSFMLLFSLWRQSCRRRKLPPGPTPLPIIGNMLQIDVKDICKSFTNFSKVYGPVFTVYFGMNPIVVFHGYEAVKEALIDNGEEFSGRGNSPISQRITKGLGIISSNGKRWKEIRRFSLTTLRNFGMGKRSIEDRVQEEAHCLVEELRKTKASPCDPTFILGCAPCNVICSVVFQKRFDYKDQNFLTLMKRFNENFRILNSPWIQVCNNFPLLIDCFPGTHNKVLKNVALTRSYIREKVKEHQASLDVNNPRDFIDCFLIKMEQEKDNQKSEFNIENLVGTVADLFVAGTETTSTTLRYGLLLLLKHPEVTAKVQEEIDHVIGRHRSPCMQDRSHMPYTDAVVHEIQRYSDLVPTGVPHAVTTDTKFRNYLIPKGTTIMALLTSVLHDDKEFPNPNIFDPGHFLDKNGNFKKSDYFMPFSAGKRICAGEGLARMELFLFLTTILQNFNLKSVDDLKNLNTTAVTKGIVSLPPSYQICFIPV
In words: CYP2C8 inhibition in pooled human liver microsomes (paclitaxel 6α-hydroxylation). The following applies: pooled HLMs, paclitaxel 6α-hydroxylation. Format: in vitro ADME. As for the experimental part: In this study, lysionotin was incubated with eight CYP isoforms (i.e., 1A2, 3A4, 2A6, 2E1, 2D6, 2C9, 2C19 and 2C8) in pooled human liver microsomes to investigate the interaction between lysionotin and CYPs, which can provide direct evidence for the effect of lysionotin on the activity of CYPs. In vitro, phenacetin (CYP1A2), testosterone (CYP3A4), coumarin (CYP2A6), chlorzoxazone (CYP2E1), dextromethorphan (CYP2D6), diclofenac (CYP2C9), S-mephenytoin (CYP2C19) and paclitaxel (CYP2C8) were used as probe substrates to determine the effects of lysionotin on eight CYP enzymes. In addition, enzyme kinetic studies were conducted to determine the inhibition model of lysionotin on CYP enzymes.
All incubations were performed in triplicate, and the mean values were utilised. The typical incubation systems contained 100 mM potassium phosphate buffer (pH 7.4), NADPH generating system (1 mM NADP^+, 10 mM glucose-6-phosphate, 1 U/mL of glucose-6-phosphate dehydrogenase, and 4 mM MgCl2), the appropriate concentration of HLMs, a corresponding probe substrate and lysionotin (or positive inhibitor for different probe reactions) in a final volume of 200 μL.
The concentration of lysionotin was 100 μM, and the positive inhibitor concentrations were as follows: 10 μM furafylline for CYP1A2, 1 μM ketoconazole for CYP3A4, 10 μM tranylcypromine for CYP2A6, 50 μM clomethiazole for CYP2E1, 10 μM quinidine for CYP2D6, 10 μM sulfaphenazole for CYP2C9, 50 μM tranylcypromine for CYP2C19, 5 μM montelukast for CYP2C8. Probe substrates, positive inhibitors (except for dextromethorphan and quinidine, which were dissolved in water), and lysionotin were dissolved in methanol, with a final concentration of 1% (v/v), and 1% neat methanol was added to the incubations without inhibitor. There was a 3 min preincubation period (at 37 °C) before the reaction was initiated by adding an NADPH-generating system. The reaction was terminated by adding a 100 μL acetonitrile (10% trichloroacetic acid for CYP2A6) internal standard mix, and the solution was placed on ice. The mixture was centrifuged at 12,000 rpm for 10 min, and an aliquot (50 μL) of supernatant was transferred for HPLC analysis. The instrument used in this study was Agilent 1260 series instrument with DAD and FLD detector, and the quantitative assay for the corresponding metabolites was performed as previously reported and the detection conditions are summarised in Table 2 (He et al. [2015]; Lang et al. [2017]; Zhang et al. [2017]). […]
The enzyme kinetic parameters for the probe reaction were estimated from the best fit line, using least-squares linear regression of the inverse substrate concentration versus the inverse velocity (Lineweaver-Burk plots), and the mean values were used to calculate Vmax and Km. Inhibition data from the experiments that were conducted using multiple compound concentrations were represented by Dixon plots, and inhibition constant (Ki) values were calculated using non-linear regression according to the following equation: v=(VmaxS)/(Km(1+I/Ki+S)for competitive inhibition v=(VmaxS)/[(Km+S((1+I/Ki)] for non-competitive inhibition where I is the concentration of the compound, Ki is the inhibition constant, S is the concentration of the substrate, and Km is the substrate concentration at half the maximum velocity (Vmax) of the reaction. The mechanism of the inhibition was inspected using the Lineweaver-Burk plots and the enzyme inhibition models. […]
(Microsomes from liver hold many membrane-bound enzymes, among them those of drug oxidation.)

A further data set concerns the target T2, CYP1A2 (Homo sapiens, UniProt P05177).
T2 construct: Pooled HLMs were purchased from BD Biosciences Discovery Labware; tissue BD Biosciences Discovery Labware; host or cells: pooled human liver microsomes
T2 sequence (P05177 1-516): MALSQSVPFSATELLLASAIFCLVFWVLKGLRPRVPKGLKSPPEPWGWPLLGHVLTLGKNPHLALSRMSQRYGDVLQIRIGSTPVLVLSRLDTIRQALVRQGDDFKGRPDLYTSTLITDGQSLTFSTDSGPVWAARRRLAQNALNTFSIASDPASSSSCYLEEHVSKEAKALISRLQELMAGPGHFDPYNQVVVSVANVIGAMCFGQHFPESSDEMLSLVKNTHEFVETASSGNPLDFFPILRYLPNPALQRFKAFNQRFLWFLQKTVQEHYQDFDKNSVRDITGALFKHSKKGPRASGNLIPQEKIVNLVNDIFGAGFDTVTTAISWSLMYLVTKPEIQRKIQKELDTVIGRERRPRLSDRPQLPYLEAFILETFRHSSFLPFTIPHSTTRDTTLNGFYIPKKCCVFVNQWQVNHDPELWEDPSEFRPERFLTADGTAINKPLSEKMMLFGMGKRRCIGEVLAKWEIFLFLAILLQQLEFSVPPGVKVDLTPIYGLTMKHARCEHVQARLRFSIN
In words: CYP1A2 inhibition in pooled human liver microsomes (phenacetin O-deethylation). Format: in vitro ADME. The following applies: 100 μM lysionotin, pooled HLMs, p > 0.05. The procedure:
(§1) In this study, lysionotin was incubated with eight CYP isoforms (i.e., 1A2, 3A4, 2A6, 2E1, 2D6, 2C9, 2C19 and 2C8) in pooled human liver microsomes to investigate the interaction between lysionotin and CYPs, which can provide direct evidence for the effect of lysionotin on the activity of CYPs. In vitro, phenacetin (CYP1A2), testosterone (CYP3A4), coumarin (CYP2A6), chlorzoxazone (CYP2E1), dextromethorphan (CYP2D6), diclofenac (CYP2C9), S-mephenytoin (CYP2C19) and paclitaxel (CYP2C8) were used as probe substrates to determine the effects of lysionotin on eight CYP enzymes. In addition, enzyme kinetic studies were conducted to determine the inhibition model of lysionotin on CYP enzymes. […]
(§2) The concentration of lysionotin was 100 μM, and the positive inhibitor concentrations were as follows: 10 μM furafylline for CYP1A2, 1 μM ketoconazole for CYP3A4, 10 μM tranylcypromine for CYP2A6, 50 μM clomethiazole for CYP2E1, 10 μM quinidine for CYP2D6, 10 μM sulfaphenazole for CYP2C9, 50 μM tranylcypromine for CYP2C19, 5 μM montelukast for CYP2C8. […] The instrument used in this study was Agilent 1260 series instrument with DAD and FLD detector, and the quantitative assay for the corresponding metabolites was performed as previously reported and the detection conditions are summarised in Table 2 (He et al. [2015]; Lang et al. [2017]; Zhang et al. [2017]). […]

In a further data set the target is T3, CYP2A6 (Homo sapiens, UniProt P11509).
T3 construct: Pooled HLMs were purchased from BD Biosciences Discovery Labware; tissue BD Biosciences Discovery Labware; host or cells: pooled human liver microsomes
T3 sequence (P11509 1-494): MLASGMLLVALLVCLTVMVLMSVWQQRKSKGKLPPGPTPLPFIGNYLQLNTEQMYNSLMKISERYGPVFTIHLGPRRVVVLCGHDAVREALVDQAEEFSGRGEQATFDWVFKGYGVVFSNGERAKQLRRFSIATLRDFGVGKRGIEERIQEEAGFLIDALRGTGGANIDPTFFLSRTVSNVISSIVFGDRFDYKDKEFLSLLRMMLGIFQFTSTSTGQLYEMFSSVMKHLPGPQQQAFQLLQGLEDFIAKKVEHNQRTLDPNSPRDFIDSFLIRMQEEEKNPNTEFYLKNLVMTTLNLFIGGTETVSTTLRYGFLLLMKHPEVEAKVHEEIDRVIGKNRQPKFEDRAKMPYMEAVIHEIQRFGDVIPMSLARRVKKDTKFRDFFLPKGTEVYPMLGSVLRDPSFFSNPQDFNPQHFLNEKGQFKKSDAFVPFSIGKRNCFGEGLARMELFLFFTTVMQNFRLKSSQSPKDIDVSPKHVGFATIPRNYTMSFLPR
In words: CYP2A6 inhibition in pooled human liver microsomes (coumarin 7-hydroxylation). Type of data set: in vitro ADME. The following applies: 100 μM lysionotin, pooled HLMs, p > 0.05. The procedure:
as §1, §2

The next data set concerns the target T4, CYP2E1 (Homo sapiens, UniProt P05181).
T4 construct: Pooled HLMs were purchased from BD Biosciences Discovery Labware; tissue BD Biosciences Discovery Labware; host or cells: pooled human liver microsomes
The data set can be described thus: CYP2E1 inhibition in pooled human liver microsomes (chlorzoxazone 6-hydroxylation). Type of data set: in vitro ADME. The following applies: 100 μM lysionotin, pooled HLMs, p > 0.05. As for the experimental part:
as §1, §2

The target in another data set is T5, CYP2D6 (Homo sapiens, UniProt P10635).
T5 construct: Pooled HLMs were purchased from BD Biosciences Discovery Labware; tissue BD Biosciences Discovery Labware; host or cells: pooled human liver microsomes
T5 sequence (P10635 whole entry): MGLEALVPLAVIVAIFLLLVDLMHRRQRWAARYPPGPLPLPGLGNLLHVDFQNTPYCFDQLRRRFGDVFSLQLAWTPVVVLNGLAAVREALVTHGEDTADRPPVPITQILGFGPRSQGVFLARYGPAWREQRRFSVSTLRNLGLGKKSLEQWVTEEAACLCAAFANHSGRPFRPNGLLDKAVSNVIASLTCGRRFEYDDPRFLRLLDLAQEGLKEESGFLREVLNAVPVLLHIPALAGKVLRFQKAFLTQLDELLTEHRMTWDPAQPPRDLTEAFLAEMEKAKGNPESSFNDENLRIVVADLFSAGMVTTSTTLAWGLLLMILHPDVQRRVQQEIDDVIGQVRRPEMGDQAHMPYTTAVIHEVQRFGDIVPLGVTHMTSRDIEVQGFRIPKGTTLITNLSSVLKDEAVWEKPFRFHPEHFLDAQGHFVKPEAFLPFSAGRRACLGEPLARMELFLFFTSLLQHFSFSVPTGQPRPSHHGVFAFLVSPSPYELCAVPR
The data set can be described thus: CYP2D6 inhibition in pooled human liver microsomes (dextromethorphan O-demethylation). Type of data set: in vitro ADME. Conditions: 100 μM lysionotin, pooled HLMs, p > 0.05. The procedure: as §1, §2

A further data set concerns the target T6, CYP2C9 (Homo sapiens, UniProt P11712).
T6 construct: Pooled HLMs were purchased from BD Biosciences Discovery Labware; tissue BD Biosciences Discovery Labware; host or cells: pooled human liver microsomes
In words: CYP2C9 inhibition in pooled human liver microsomes (diclofenac 4′-hydroxylation). Format: in vitro ADME. The following applies: 100 μM lysionotin, pooled HLMs, p > 0.05. The procedure: as §1, §2

The next data set addresses T7, CYP3A4 (Homo sapiens, UniProt P08684).
T7 construct: Pooled HLMs were purchased from BD Biosciences Discovery Labware; tissue BD Biosciences Discovery Labware; host or cells: pooled human liver microsomes
The data set can be described thus: Time-dependent inhibition study of CYP3A4 in HLMs. Type of data set: in vitro ADME. As for the experimental part: (§3) To determine whether lysionotin could inhibit the activity of CYP3A4, 2C19, and 2C8 in a time-dependent manner, lysionotin (20 μM) was pre-incubated with HLMs (1 mg/mL) in the presence of an NADPH-generating system for 30 min at 37 °C. After incubation, an aliquot (20 μL) was transferred to another incubation tube (final volume 200 μL) containing an NADPH-generating system and probe substrates whose final concentrations were approximate to Km. Then, further incubations were performed to measure the residual activity. After being incubated for 0, 5, 10, 15, and 30 min, the reactions were terminated by adding a 100 μL acetonitrile internal standard mix and then placed on ice; the corresponding metabolites were determined by HPLC.
To determine the KI and Kinact values for the inactivation of CYP3A4, the incubations were conducted using higher probe substrate concentrations (approximately 4-fold Km values) and various concentrations of lysionotin (0–50 μM) after different preincubation times (0–30 min), with a two-step incubation scheme, as described above. The value of KI and Kinact was calculated with the equation 1/Kobs = KI/Kinact*1/[I] + 1/Kinact. Where Kobs is the pseudo-first-order rate constant of inactivation at inactivated concentration [I], Kinact is the maximum inactivation rate (a theoretical value that cannot be experimentally observed), and KI is the inactivated concentration when the rate of inactivation reaches half of Kinact.

The target of the next data set is T8, CYP2C19 (Homo sapiens, UniProt P33261).
T8 construct: Pooled HLMs were purchased from BD Biosciences Discovery Labware; tissue BD Biosciences Discovery Labware; host or cells: pooled human liver microsomes
T8 sequence (P33261 whole entry): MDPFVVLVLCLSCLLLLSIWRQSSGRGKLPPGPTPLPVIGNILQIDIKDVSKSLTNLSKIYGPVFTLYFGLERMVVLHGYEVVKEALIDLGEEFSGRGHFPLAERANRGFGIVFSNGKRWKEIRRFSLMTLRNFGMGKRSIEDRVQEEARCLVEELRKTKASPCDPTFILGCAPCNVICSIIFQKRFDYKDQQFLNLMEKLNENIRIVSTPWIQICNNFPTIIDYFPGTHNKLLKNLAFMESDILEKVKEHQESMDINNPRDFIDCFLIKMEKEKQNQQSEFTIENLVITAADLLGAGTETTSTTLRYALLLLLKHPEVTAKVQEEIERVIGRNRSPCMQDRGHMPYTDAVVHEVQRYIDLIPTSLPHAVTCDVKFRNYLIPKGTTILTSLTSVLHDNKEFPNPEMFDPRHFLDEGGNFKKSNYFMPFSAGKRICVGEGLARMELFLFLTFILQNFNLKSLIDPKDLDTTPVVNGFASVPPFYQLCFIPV
The data set can be described thus: Time-dependent inhibition study of CYP2C19 in HLMs. Format: in vitro ADME. Conditions: 20 μM lysionotin, 0–30 min. As for the experimental part:
as §3

Data set [2] concerns the target T1, CYP2C8. The data set can be described thus: Time-dependent inhibition study of CYP2C8 in HLMs. Format: in vitro ADME. Conditions: 20 μM lysionotin, 0–30 min. The procedure:
as §3

Details of data set [3]: method as in Liu et al. [2013]. Conditions: oral administration of 50 mg/kg, ref Liu et al. [2013]; cited from earlier work.

T7 sequence (P08684 whole entry): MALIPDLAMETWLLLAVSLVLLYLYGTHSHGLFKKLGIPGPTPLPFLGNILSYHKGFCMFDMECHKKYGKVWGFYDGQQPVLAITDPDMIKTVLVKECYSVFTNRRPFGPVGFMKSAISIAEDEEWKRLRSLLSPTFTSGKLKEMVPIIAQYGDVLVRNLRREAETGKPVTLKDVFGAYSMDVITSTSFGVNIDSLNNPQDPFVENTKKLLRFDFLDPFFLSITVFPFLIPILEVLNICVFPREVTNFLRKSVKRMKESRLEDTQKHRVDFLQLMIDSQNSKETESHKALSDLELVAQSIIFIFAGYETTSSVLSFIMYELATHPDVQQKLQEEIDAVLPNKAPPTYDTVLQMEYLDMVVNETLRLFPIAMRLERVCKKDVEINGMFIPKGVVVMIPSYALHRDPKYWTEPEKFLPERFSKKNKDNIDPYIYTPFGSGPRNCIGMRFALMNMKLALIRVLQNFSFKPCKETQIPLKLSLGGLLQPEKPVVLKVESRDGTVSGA
T4 sequence (P05181 whole entry): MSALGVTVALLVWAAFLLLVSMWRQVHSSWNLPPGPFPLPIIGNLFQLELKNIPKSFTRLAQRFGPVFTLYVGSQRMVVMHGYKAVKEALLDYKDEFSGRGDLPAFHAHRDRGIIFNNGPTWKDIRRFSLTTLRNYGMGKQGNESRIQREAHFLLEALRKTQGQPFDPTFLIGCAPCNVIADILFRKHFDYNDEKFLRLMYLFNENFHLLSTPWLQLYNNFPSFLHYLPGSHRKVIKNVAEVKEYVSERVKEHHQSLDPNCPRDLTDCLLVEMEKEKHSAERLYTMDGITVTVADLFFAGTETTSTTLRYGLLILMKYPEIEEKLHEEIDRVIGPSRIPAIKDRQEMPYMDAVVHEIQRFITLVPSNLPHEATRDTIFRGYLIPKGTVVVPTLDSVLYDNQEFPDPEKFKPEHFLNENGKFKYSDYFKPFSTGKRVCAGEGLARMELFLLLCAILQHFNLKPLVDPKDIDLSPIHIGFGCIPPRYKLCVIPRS
T6 sequence (P11712 whole entry): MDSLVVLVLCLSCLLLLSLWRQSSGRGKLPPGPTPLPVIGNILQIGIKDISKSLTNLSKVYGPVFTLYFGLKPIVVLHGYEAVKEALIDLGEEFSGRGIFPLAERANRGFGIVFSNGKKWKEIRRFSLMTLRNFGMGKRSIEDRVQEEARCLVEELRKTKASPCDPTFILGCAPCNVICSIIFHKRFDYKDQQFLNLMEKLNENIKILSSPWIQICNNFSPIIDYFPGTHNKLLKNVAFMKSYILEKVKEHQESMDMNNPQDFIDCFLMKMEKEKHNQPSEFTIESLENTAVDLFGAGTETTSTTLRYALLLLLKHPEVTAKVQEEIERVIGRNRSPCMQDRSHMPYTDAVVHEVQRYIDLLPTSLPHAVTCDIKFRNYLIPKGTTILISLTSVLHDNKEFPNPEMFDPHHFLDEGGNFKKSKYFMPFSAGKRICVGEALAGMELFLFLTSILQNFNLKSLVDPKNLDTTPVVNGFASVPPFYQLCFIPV

`COc1ccc(-c2cc(=O)c3c(O)c(OC)c(O)c(OC)c3o2)cc1` [lysionotin, Lysionotin]: at CYP2C8 [1], it took 30 µM to reach half-maximal inhibition (IC50). The “effect on the activity of CYP1A2” value on CYP1A2 is recorded as “not affected”. In addition, the “effect on the activity of CYP2A6” value at CYP2A6 is given as “not affected”. Also, on CYP2E1, the “effect on the activity of CYP2E1” value was “not affected”. The “effect on the activity of CYP2D6” value at CYP2D6 is “not affected”. Besides, the “effect on the activity of CYP2C9” value on CYP2C9 was “not affected”. For the same compound, on CYP3A4 (20 μM lysionotin, 0–30 min), the “effect of incubation time on the inhibition of CYP3A4” value is recorded as “time-dependent”. Also, on CYP3A4 (during incubation with lysionotin), the “CYP3A4 inactivated every minute” value was “about 4.8%”. Besides, the KI (inactivation) at CYP3A4 (human, human liver microsomes, probe testosterone (approximately 4-fold Km), lysionotin 0–50 μM, preincubation 0–30 min, NADPH, printed as KI/Kinact) was found to be 6.62 µM. At CYP3A4 (lysionotin 0–50 μM, preincubation 0–30 min, NADPH, printed as KI/Kinact), the Kinact for inactivation of CYP3A4 turned out to be 0.048 min⁻¹. The “effect of incubation time on the inhibition of CYP2C19” value on CYP2C19 is “relatively stable”. At CYP2C8 [2], the “effect of incubation time on the inhibition of CYP2C8” value was “relatively stable”. In addition, the “Cmax in rat plasma” value in data set [3] is recorded as 58.4 ± 10.3 ng/mL.

One may read the IC50 as the midpoint of a concentration-inhibition curve.
